Several values for one entry are separate records, joined by “and”; a condition that tells them apart may be missing. Identical values can stand only once.
Key:
[1] = test system: carrageenan induced rat paw oedema; experiment: rat carrageenan-induced foot paw oedema model; assay type: in vivo; conditions: for Mean % increase in paw weight ± SEM / % Inhibition of paw oedema from control group: 2 h after carrageenan; for Mean % increase in paw weight ± SEM: control group 165.6 ± 1.6; for % Inhibition of paw oedema from control group: single dose screen (Table 1); for ED50: from three graded doses (45, 65, 80 mg/kg)
Method: Anti-inflammatory assessment of the newly synthesised compounds was carried out using an in vivo rat carrageenan-induced foot paw oedema model, as reported previously[16]^,[17].

mice = experiment: Ulcerogenicity measurement; assay type: in vivo; conditions: for Average number of ulcers / Mean sum of lengths of elongated ulcer: mice; for Mean sum of lengths of elongated ulcer: ± SEM; for level of ulcerogenic activity (in words): relative to diclofenac and celecoxib
Method: Ulcerogenicity was evaluated according to a previously reported method[6]^a,[17]^,[18]. The number and total length of the ulcers for each animal were measured and their averages were calculated and used as the ulcer indices.

COX-1 = target: T1, COX-1 (Ovis aries, UniProt P05979); experiment: colorimetric COX (ovine) inhibitor screening assay kit; assay type: biochemical; conditions: ovine COX-1, mean of two determinations
T1 construct: purchased Cayman Chemicals Inc., Ann Arbour, MI
T1 sequence (P05979 25-600): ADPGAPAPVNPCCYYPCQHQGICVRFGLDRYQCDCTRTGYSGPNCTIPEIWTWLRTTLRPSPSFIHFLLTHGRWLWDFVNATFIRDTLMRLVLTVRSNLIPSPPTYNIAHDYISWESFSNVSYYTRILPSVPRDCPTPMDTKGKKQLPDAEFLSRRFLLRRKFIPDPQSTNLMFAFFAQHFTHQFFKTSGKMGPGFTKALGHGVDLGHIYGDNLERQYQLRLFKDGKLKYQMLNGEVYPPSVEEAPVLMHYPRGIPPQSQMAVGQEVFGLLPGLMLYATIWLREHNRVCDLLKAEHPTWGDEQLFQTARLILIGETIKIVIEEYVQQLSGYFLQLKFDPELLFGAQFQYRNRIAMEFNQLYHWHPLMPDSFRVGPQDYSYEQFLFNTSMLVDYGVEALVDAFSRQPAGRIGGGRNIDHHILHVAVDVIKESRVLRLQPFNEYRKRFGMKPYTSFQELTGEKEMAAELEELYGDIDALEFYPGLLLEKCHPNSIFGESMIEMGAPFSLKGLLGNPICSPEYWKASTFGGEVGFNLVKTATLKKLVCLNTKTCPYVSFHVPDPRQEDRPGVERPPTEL
Excerpt: (§1) To determine the relative ability of the test compounds and reference drugs to inhibit COX-1/COX-2 isozymes, we used the colorimetric COX (ovine) inhibitor screening assay kit (Cayman Chemicals Inc., Ann Arbour, MI), according to the manufacturer’s instructions[3]^,[10]^,[11]^,[20].

COX-2 = target: T2, COX-2 (Ovis aries, UniProt P79208); experiment: as above; assay type: biochemical; conditions: for SI, selectivity index (COX-1 IC50/COX-2 IC50): ovine COX-1/COX-2; for IC50: ovine COX-2, mean of two determinations
T2 construct: purchased Cayman Chemicals Inc., Ann Arbour, MI
T2 sequence (P79208 17-603): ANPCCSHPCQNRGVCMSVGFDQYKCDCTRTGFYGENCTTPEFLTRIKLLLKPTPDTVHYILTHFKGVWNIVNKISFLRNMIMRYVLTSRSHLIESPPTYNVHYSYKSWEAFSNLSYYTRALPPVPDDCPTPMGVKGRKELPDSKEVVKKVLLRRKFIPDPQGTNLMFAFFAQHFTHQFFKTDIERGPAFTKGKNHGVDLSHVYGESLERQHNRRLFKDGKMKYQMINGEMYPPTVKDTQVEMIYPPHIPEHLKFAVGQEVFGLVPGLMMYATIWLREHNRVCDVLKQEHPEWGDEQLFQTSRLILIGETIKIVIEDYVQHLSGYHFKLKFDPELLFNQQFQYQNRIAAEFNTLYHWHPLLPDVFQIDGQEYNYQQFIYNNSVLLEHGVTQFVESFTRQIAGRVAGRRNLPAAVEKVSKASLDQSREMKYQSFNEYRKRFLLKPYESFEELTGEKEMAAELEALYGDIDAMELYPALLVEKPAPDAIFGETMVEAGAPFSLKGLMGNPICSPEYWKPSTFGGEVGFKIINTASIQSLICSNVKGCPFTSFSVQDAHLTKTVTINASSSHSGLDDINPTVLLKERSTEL
Excerpt: as §1

Row | Compound | Mean % increase in paw weight ± SEM [1] [%] | % Inhibition of paw oedema from control group [1] | Percentage inhibition of paw oedema from control group ([1]; dose 45 mg/kg) [%] | Percentage inhibition of paw oedema from control group ([1]; dose 65 mg/kg) [%] | Percentage inhibition of paw oedema from control group ([1]; dose 80 mg/kg) [%] | ED50 [1] [mg/kg] | Average number of ulcers (mice) | Mean sum of lengths of elongated ulcer (mice) [mm] | level of ulcerogenic activity (in words) (mice) | IC50 (COX-1) [µM] | SI, selectivity index (COX-1 IC50/COX-2 IC50) (COX-2) | IC50 (COX-2) [µM] | % Inhibition of paw oedema from control group ([1]; listed as celecoxib) [%]
1 | C/C(=N/O)c1ccc(N2C(=O)C3CC=CCC3C2=O)cc1 (stereo not drawn) [Compound 12] | 37.5 ± 0.5 | 79.7% and 79.7 ± 0.4% | 65.3 | 79.7 | 87.4 | 39.2 | 5 | 2.4 ± 0.13 | ulcerogenic level similar to celecoxib and less than that of diclofenac | > 50 | >312.5 | 0.16 | –
2 | C/C(=N/O)c1ccc(N2C(=O)c3cc(Cl)c(Cl)cc3C2=O)cc1 [Compound 16] | 115.3 ± 1.2 | 39.6% and 39.6 ± 0.4% | – | – | – | – | – | – | – | – | – | – | –
3 | O=C(O)Cc1ccccc1Nc1c(Cl)cccc1Cl [Diclofenac, reference compound] | 30.1 ± 0.3 | 83.4% and 83.4 ± 0.5% | – | – | – | – | 10 | 7.6 ± 0.89 | – | – | – | – | –
4 | O=C(O)CC(c1ccccc1)N1C(=O)C2CC=CCC2C1=O (stereo not drawn) [Compound 22] | 69.1 ± 0.5 | 62.9 ± 0.4% | – | – | – | – | – | – | – | 11.6 | 0.46 | 25.1 | –
5 | C/C(=N/O)c1ccc(N2C(=O)c3ccc(C(C)(C)C)cc3C2=O)cc1 [Compound 15] | 95.7 ± 0.9 | 48.1% and 48.1 ± 0.2% | – | – | – | – | – | – | – | > 50 | >14.3 | 3.5 | –
6 | C/C(=N/O)c1ccc(N2C(=O)c3ccc(C)cc3C2=O)cc1 [Compound 14] | 70.8 ± 0.6 | 61.6% and 61.6 ± 0.5% | – | – | – | – | – | – | – | > 50 | >62.5 | 0.8 | –
7 | NS(=O)(=O)c1cccc(N2C(=O)c3ccc([N+](=O)[O-])cc3C2=O)c1 [Compound 9] | 35.6 ± 0.1 | 80.9% and 80.9 ± 0.9% | 69.8 | 80.9 | 90.5 | 37 | 4 | 1.7 ± 0.21 | very low levels of ulcerogenic activity | > 50 | >333.3 | 0.15 | –
8 | Cc1ccc(-c2cc(C(F)(F)F)nn2-c2ccc(S(N)(=O)=O)cc2)cc1 [Celecoxib, 4-[5-(4-methylphenyl)-3-(trifluoromethyl)-1H-pyrazol-1-yl]benzenesulfonamide, reference compound] | 27.3 ± 0.4 | 85.6 ± 0.4% | 69.8 | 85.6 | 93.5 | 34.1 | 5 | 5.8 ± 0.77 | – | – | – | – | 85.6
9 | C/C(=N/O)c1ccc(N2C(=O)c3c(Cl)c(Cl)c(Cl)c(Cl)c3C2=O)cc1 [Compound 17] | 135.6 ± 0.8 | 25.1% and 25.1 ± 0.6% | – | – | – | – | – | – | – | – | – | – | –
10 | O=C(O)CC(c1ccccc1)N1C(=O)c2ccccc2C1=O (stereo not drawn) [Compound 23] | 65.6 ± 0.3 | 64.4% and 64.4 ± 0.7% | – | – | – | – | – | – | – | 10.9 | 0.49 | 22.3 | –
11 | Cc1ccc2c(c1)C(=O)N(C(CC(=O)O)c1ccccc1)C2=O (stereo not drawn) [Compound 24] | 123.4 ± 0.9 | 33.1 ± 0.4% | – | – | – | – | – | – | – | 24.8 | 0.68 | 36.3 | –

Source: paper PMC7034070, “Synthesis, anti-inflammatory, cytotoxic, and COX-1/2 inhibitory activities of cyclic imides bearing 3-benzenesulfonamide, oxime, and β-phenylalanine scaffolds: a molecular docking study” (Journal of Enzyme Inhibition and Medicinal Chemistry, 2020)
